Experimental data reported in US20100254940A1, “Compositions and Methods for Regulating an Immune Response in a Subject” (INNATE PHARMA, S.A., priority 2002, published 2010).

Key:
IFNγ = assay: Serum IFNγ by ELISA after BrHPP injection in cynomolgus monkeys; type: in vivo, cynomolgus monkeys (M. fascicularis)
Procedure: Serum cytokines (TNFα and INFg) were detected and quantified with the BIOSOURCE Cytoscreen™ ELISA monkey TNFa and Cytoscreen™ ELISA monkey INFg respectively (purchased from CliniSciences, Montrouge, France) according to the manufacturer's instructions.
Samples of sera were collected from group 2 animals during the first dose range assay (0 to 80 mg/kg) just before injection then 1 and 4 hours post injection, and assayed by ELISA specific for TNFa and IFNg.
Phosphostim was administered i.v., as slow infusions (50 ml in 30 minutes), at various dose levels to five groups of two animals (one male+one female). Males received two successive injections of BrHPP (Day 0 and Day 22) before sacrifice and females four injections (Days 0, 22, 52 and 84). Two females, selected upon their level of response to the 4th treatment, received a supplementary injection of BrHPP alone at Day 91, during γδ cell peripheral increase, for systemic cytokine dosages.

[1] = Two week repeated dose toxicity study in rats, i.v. BrHPP; type: in vivo, Sprague-Dawley rats
Procedure: The objective of this GLP study was to evaluate the potential toxicity of BrHPP following daily i.v. administration in rats for two weeks. 116 Sprague-Dawley rats were allocated into four groups: one control group (Group 1) with 10 males and 10 females and three treatment groups (Groups 2 to 4) with 10 males and 10 females. Group 2, 3 and 4 were administered respectively 80, 150 and 300 mg/kg/day (respectively 48, 90 and 180 mg/kg in anionic form equivalent) of BrHPP. […] Satellite animals were allocated for toxico-kinetics purposes.
BrHPP was administered daily by slow intravenous injection (0.4 mL/min) as a solution in sterile water for injection and Ringer lactate at the dose levels of 80, 150 or 300 mg/kg/day. The control group received the vehicle (together with 1% sodium to reach an osmolarity similar to the high-dose group dosage forms) under the same experimental conditions. A constant dosage-volume of 5 mL/kg was used.
The animals were checked daily for mortality and clinical signs. Body weight and food consumption were recorded twice a week. Opthalmologic examination was performed before and at the end of the treatment period. Blood samples for determination of levels of BrHPP were taken from satellite animals on Day 1 and at the end of the treatment period. Vaginal lavage was performed in females during pre-treatment and at the end of the treatment period for monitoring of estrous cycle. Hematological, blood biochemical and urinalysis investigations were performed on all principal animals at the end of week 2. On completion of the study, all animals were killed and subjected to a macroscopic post mortem examination and specified organs were weighed and preserved. Microscopic examination was performed on selected tissues from animals of the control and the 300 mg/kg/day groups.

786-0 cells lines = assay: Nod-SCID/tumor model, human PBMC stimulated in vivo with BrHPP; parameters: species or system Nod-SCID mice
Procedure: Preliminary studies to set up the Nod-SCID/tumor and to stimulate human MNC with BrHPP in the Nod-SCID were carried out as follows: • The following renal tumor cells lines purchased from the ATCC (786-0, Kaci1, G401 and G402) were used for the establishment of the model. 786-0 and Kaci-1 cells lines were renal clear cell carcinoma (RCC), G401 rhabdoid and G402 leimyeloblastoma.
8-12 weeks Nod-SCID mice were used as recipient of the cells lines.
Each mouse received, at the left flank's upper part, 2-5×10^6 cells by subcutaneous injection at day D0. The appearance and the growing of the tumors evolution were checked weekly.
The tumors appearance and development depend on the cell line and on the number of engrafted cells. For example, after the engraftment of 2×10^6 cells, 3 to 4 weeks were needed for the 786-O and Kac1-1, while 2 weeks were needed for the G401 and 402. • At day 0, mice were injected IP 50*10^6 PBMC (collected from healthy donor, etablissement français du sang), then stimulated (IP) 40 mg/kg BrHPP mixed with 1000 IU of IL2. At D5 and each every three days, mice were treated with 500 UI of IL2. Human γδ T cells were developed in the peritoneal cavity of Nod-SCID/human (hu) BrHPP treated mice.
Taking advantage of the tumoral development in the Nod-SCID mice and the in vivo stimulation of the human γδ T cells, the anti-tumoral effect of the γδ T cells was studied in vivo. The tumoral model was established by engrafting 2×10^6 of 786-0 cells lines, three weeks later, when the volume of the solid tumor reached more than >30 mm3 (calculated with the formula A^2×B/2 where A and B represent respectively the length and breadth of the tumor). Mice, randomized, received IP PBMC and treated for the stimulation with BrHPP. Several groups were constituted:
A—Negative control group: Mice in the group received only tumoral cell line
B—PBMC group: Mice were injected IP with 50×10^6 PBMC
C—Study group: Mice after receiving the 50×10^6 PBMC were treated with BrHPP and
For each group, parameters were observed as follows: • Weekly check of the tumor size and volume • Weekly phenotype of human T cells in the peritoneal cavity and blood collected cells for the percentage of human γδ T cells versus ab human T cells. • Serological TNF and INF check • At sacrifice: • 1—phenotype study of the homing of human leukocytes cells and their phenotype (IP, liver, lung, spleen, bone morrow, blood, thymus and tumor). • 2—Immunohistochemistry (IHC) study in the tumor of the recipient mice.

[2] = Vital parameters, haematology and serum clinical chemistry follow up in cynomolgus monkeys (non-GLP studies); type: in vivo, cynomolgus monkeys (M. fascicularis)
Procedure: Classical blood parameters follow-up (red blood cell, platelets total and differential white blood cells counts, haemoglobin, mean corpuscular haemoglobin, mean corpuscular haemoglobin concentration) were performed at the sites of monkey handling, just before and after each administration and twice weekly.
On all animals in group 2, 48 or 72 hours after each injection, 16 blood chemistry parameters were measured (sodium, potassium, chloride, calcium, inorganic phosphorus, glucose, urea, total cholesterol, total bilirubin, total protein, albumin, globulin, creatinin, alkaline phosphatase, aspartate aminotransferase and […] aminotransferase).
The animals were observed daily and during and after each injection for any change in vital and clinical parameters (general behaviour, skin, hair, respiratory system, central nervous system). Animals were regularly weighed, every 3 days (group 1) or weekly (group 2). Body temperature (on vigil animals of group 2) was measured before and at the end of each BrHPP/IL2 (or IL2 alone) infusion and once daily during the 5 days following administration. Heart rate and blood pressure were recorded for all animals in group 2, before and at the end of each administration.

Substance: 3-(bromomethyl)-3-butanol-1-yl-diphosphate [BrHPP]
- IFNg in the sera (IFNγ; fifth injection 80 mg/kg without IL2 at peak after fourth injection): detectable at one hour post injection, and increased at 4 hours post injection
- Assessment of IFNγ (IFNγ; first dose range assay 0 to 80 mg/kg, 1 and 4 hours post injection): Did not Give Significant Results
- microscopic examination, other organs and tissues ([1]; 300 mg/kg/day): No relevant findings were seen in other organs and tissues
- opthalmologic findings ([1]; 300 mg/kg/day, end of treatment): No relevant opthalmologic findings
- mortality ([1]; 80, 150, 300 mg/kg/day i.v. two weeks): No unscheduled death occurred
- clinical signs during dosing ([1]; 150 and 300 mg/kg/day): Vocalization during dosing was noted on many occasions
- microscopic examination, tail vein ([1]; both control and BrHPP-treated, attributed to mechanical injury): slight changes were observed in the tail vein
- macroscopic post-mortem examination ([1]; end of treatment): No relevant findings were noted
- organ weights ([1]; end of treatment): No relevant differences in organ weights from controls
- hematological, biochemical or urinary parameter ([1]; end of week 2): No changes of toxicological significance
- mean body weight gain ([1]; females): Dose-related higher mean body weight gain
- NOAEL in anionic form equivalent ([1]; highest tested dose): 180 mg/kg
- No Observed Adverse Effect Level (NOAEL) ([1]; highest tested dose): 300 mg/kg/day
- mice in which the tumor was not totally cleared (786-0 cells lines; PBMC + BrHPP + IL2): 4 of 10
- tumor size (786-0 cells lines; PBMC/BrHPP (40 mg/kg IP) and IL2 treated group): from day 7 onwards the tumor size shrank
- tumor growth where tumor not totally cleared (786-0 cells lines; after 12 weeks): tumor growth was stopped and the tumor size stayed stable
- human γδ cells in the tumor (786-0 cells lines; at sacrifice, 4 weeks): human γδ cells were present only in the BrHPP treated group
- reappearance of tumor (786-0 cells lines; mice where the tumor was cleared, 12 weeks after the treatment): no reappearance of new tumor was observed
- human γδ T cell presence in the peritoneal cavity (786-0 cells lines; weekly IP phenotype): human γδ T cell presence only in the BrHPP treated mice
- clinical or blood chemical parameters ([2]; BrHPP alone or in association with IL2): No alteration of clinical or blood chemical parameters
- rectal temperature ([2]; any animal treated): not significantly affected
- toxicity as assessed by vital signs or rectal temperature ([2]; five daily injection of 0.2 mg/kg BrHPP alone): did not result in any toxicity
- toxicity, fever ([2]; four daily injections 1, 4, 16, 32 mg/kg BrHPP alone): no toxicity nor fever was observed
- lymphocytes ([2]; highest dose of BrHPP, at peak of Vg9Vd2 in the periphery): a lymphocytosis was observed
